Patent publication US6303630A, “Diarylsulfone non-nucleoside reverse transcriptase inhibitors of human immunodeficiency virus” (University of the Sciences in Philadelphia, priority 2000, dated 2001)
Read-outs that look alike come from different tables or passages of the source.

Tests used:
[1] = test system: HIV-1; assay: NCI in vitro anti-HIV drug screen: XTT-formazan assay, protection of T4 lymphocytes (CEM) from HIV-1 cytopathic effects; type: cell-based, human immunodeficiency virus (HIV-1); conditions: for EC50: 144 h, HIV-1 infected CEM cells, 6 days, XTT, approximate values, read-out: EC50 (50% effective concentration against HIV cytopathic effects); for inhibition at 200 µM / activity at 200 µM: dose 2.00 × 10^-4 Molar; for inhibition at 2 µM / activity at 2 µM: dose 2.00 × 10^-6 Molar; for inhibition at 0.2 µM / activity at 0.2 µM: dose 2.00 × 10^-7 Molar; for TI50 (IC/EC), Therapeutic Index: IC50/EC50
Description: Compounds of the present invention were evaluated for anti-HIV efficacy by the National Cancer Institute's (NCI) In Vitro Anti AIDS Drug Discovery Program.
(§1) The NCI procedure is fully described, for example, in a bulletin provided by the National Institutes of Health, National Cancer Institute, Bethesda, Md. 20892, all of which is incorporated herein by reference. As related in the NCI bulletin, the procedure is based on O. W. Weislow et al., "New soluble-formazan assay for HIV-1 cytopathic effects: application to high flux screening of synthetic and natural products for AIDS-antiviral activity", J. Natl. Cancer Inst. 81:577-586 (1989), and is used to test for compounds active against human immunodeficiency virus (HIV), and is designed to detect compounds active at any stage of the virus reproductive cycle. As further related in the NCI bulletin, the assay includes killing of T4 lymphocytes by HIV. Amounts of HIV are added to cells, with a minimum of two cycles of virus reproduction found to be necessary to obtain the required cell killing. Compounds that interact with virions, cells, or virus gene-products to interfere with viral activities will protect cells from cytolysis. All were compared with a positive (e.g., AZT-treated) control evaluation at the same time under identical conditions. The procedure is set forth as follows:
(§2) A candidate compound is first dissolved in a suitable solvent, preferably dimethyl sulfoxide, then diluted 1:100 in cell culture medium before preparing serial half-log10 dilutions. T4 lymphocytes (CEM cell line) are then added and after a brief interval HIV-1 is added, resulting in a 1:200 final dilution of the compound. Uninfected cells with the compound serve as a toxicity control, and infected and uninfected without the compound serve as basic controls. Cultures are then incubated at 37° in a 5% carbon dioxide atmosphere for 6 days. The tetrazolium salt, XTT, is added to all wells, and cultures are incubated to allow formazan color development by viable cells. Individual wells are analyzed spectrophotometrically to quantitate formazan product, and in addition are viewed microscopically for detection of viable cells and confirmation of protective activity. Drug-treated virus-infected cells are compared with drug-treated noninfected cells and with other appropriate controls (untreated infected and untreated noninfected cells, drug-containing wells without cells, etc.) on the same plate. Data are reviewed in comparison with other tests performed at the same time and a determination as to activity is made.

[2] = test system: T4 lymphocytes (CEM cell line); assay: Cell growth / toxicity control in uninfected T4 lymphocytes (CEM), XTT-formazan; type: cell-based; conditions: Homo sapiens, CCRF-CEM; for IC50: 144 h, approximate values; for activity at 200 µM: dose 2.00 × 10^-4 Molar; for activity at 20 µM: dose 2.00 × 10^-5 Molar; for activity at 2 µM: dose 2.00 × 10^-6 Molar; for activity at 0.2 µM: dose 2.00 × 10^-7 Molar; for activity at 6.33 µM: dose 6.33 × 10^-6 Molar; for activity at 0.634 µM: dose 6.34 × 10^-7 Molar; for activity at 0.0635 µM: dose 6.35 × 10^-8 Molar; for activity at 63.2 µM: dose 6.32 × 10^-5 Molar
Text: as §1, §2

[3] = Human immunodeficiency virus 1, CCRF-CEM
[4] = Human immunodeficiency virus 1, CCRF-CEM, read-out: Percent of Protection
[5] = Human immunodeficiency virus 1, CCRF-CEM, dose 6.34 × 10^-7 Molar, read-out: Percent of Protection
[6] = Human immunodeficiency virus 1, CCRF-CEM, read-out: Percent of Protection, dose 2.00 × 10^-5 Molar
[7] = Human immunodeficiency virus 1, CCRF-CEM, read-out: Percent of Protection, dose 6.33 × 10^-6 Molar
[8] = Human immunodeficiency virus 1, CCRF-CEM, read-out: Percent of Protection, dose 6.35 × 10^-8 Molar
[9] = Human immunodeficiency virus 1, Lymphocyte, read-out: Percent of Control, Infected
[10] = Human immunodeficiency virus 1, Lymphocyte, dose 2.00 × 10^-5 Molar, read-out: Percent of Control, Infected
[11] = Human immunodeficiency virus 1, Lymphocyte, dose 6.33 × 10^-6 Molar, read-out: Percent of Control, Infected
[12] = Human immunodeficiency virus 1, Lymphocyte, dose 6.34 × 10^-7 Molar, read-out: Percent of Control, Infected
[13] = Human immunodeficiency virus 1, Lymphocyte, dose 6.35 × 10^-8 Molar, read-out: Percent of Control, Infected
[14] = read-out: IC50 (50% inhibitory concentration for cell growth), uninfected CEM cells, 6 days, XTT
[15] = read-out: Percent of Control, Uninfected
[16] = Human immunodeficiency virus 1, CCRF-CEM, read-out: Percent of Protection, dose 6.32 × 10^-5 Molar
[17] = Human immunodeficiency virus 1, Lymphocyte, dose 6.32 × 10^-5 Molar, read-out: Percent of Control, Infected

`CN(c1ccccc1)S(=O)(=O)c1cccc([N+](=O)[O-])c1` [Compound 14, N-(3-nitrophenylsulfonyl)-N-methylaniline] was tested, and the EC50 [1, 3] was 42.5 µM, the inhibition at 200 µM [1, 4] was 5.28% and the inhibition at 2 µM [1, 4] was -6.93%. It also gave an inhibition at 0.2 µM [1, 4] of -10.9%, an inhibition at 63.3 µM ([1]; Human immunodeficiency virus 1, CCRF-CEM, dose 6.33 × 10^-5 Molar, read-out: Percent of Protection) of 78.3% and an inhibition at 0.634 µM [1, 5] of -13.4%. For the same compound, the inhibition at 20 µM [1, 6] was -3.74%, the inhibition at 6.33 µM [1, 7] was -3.87% and the inhibition at 0.0635 µM [1, 8] was -11.1%. For the same compound, the activity at 200 µM [1, 9] was 17.6%, the activity at 20 µM [1, 10] was 9.75% and the activity at 2 µM [1, 9] was 6.97%. It also gave an activity at 0.2 µM [1, 9] of 3.54%, an activity at 63.3 µM ([1]; Human immunodeficiency virus 1, Lymphocyte, dose 6.33 × 10^-5 Molar, read-out: Percent of Control, Infected) of 81.1% and an activity at 6.33 µM [1, 11] of 16.4%. The activity at 0.634 µM [1, 12] was 1.34%, the activity at 0.0635 µM [1, 13] was 3.37% and the “TI50 (IC/EC), Therapeutic Index” value [1] was 3.34 × 10^0. It also gave an IC50 [2, 14] of 142 µM, an activity at 200 µM [2, 15] of 41.5% and an activity at 20 µM [2, 15] of 83.8%. It also gave an activity at 2 µM [2, 15] of 87.2%, an activity at 0.2 µM [2, 15] of 93.2% and an activity at 63.3 µM ([2]; dose 6.33 × 10^-5 Molar, read-out: Percent of Control, Uninfected) of 70.2%. For the same compound, the activity at 6.33 µM [2, 15] was 81.3%, the activity at 0.634 µM [2, 15] was 87.8% and the activity at 0.0635 µM [2, 15] was 94.8%.
`Cc1ccc(N(C)S(=O)(=O)c2ccccc2[N+](=O)[O-])cc1` [Compound 31, N-(2-nitrophenylsulfonyl)-N,4-dimethylaniline] showed an EC50 [1, 3] of 12.5 µM, an inhibition at 200 µM [1, 4] of -0.58% and an inhibition at 2 µM [1, 4] of 9.89%. It also gave an inhibition at 0.2 µM [1, 4] of -1.72%, an inhibition at 0.634 µM [1, 5] of -2.85% and an inhibition at 20 µM [1, 6] of 73.6%. It also gave an inhibition at 63.2 µM [1, 16] of 18.4%, an inhibition at 6.33 µM [1, 7] of 22% and an inhibition at 0.0635 µM [1, 8] of -3.51%. The activity at 2 µM [1, 9] was 14.4%, the activity at 0.2 µM [1, 9] was 3.37% and the activity at 0.634 µM [1, 12] was 2.29%. The activity at 0.0635 µM [1, 13] was 1.67%, the “TI50 (IC/EC), Therapeutic Index” value [1] was 31.0 × 10^0 and the IC50 [2, 14] was 388 µM. The activity at 200 µM [2, 15] was -0.75%, the activity at 20 µM [2, 15] was 84.3% and the activity at 2 µM [2, 15] was 84.1%. The activity at 0.2 µM [2, 15] was 95.8%, the activity at 63.2 µM [2, 15] was 24.6% and the activity at 6.33 µM [2, 15] was 91.1%. It also gave an activity at 0.634 µM [2, 15] of 89.9% and an activity at 0.0635 µM [2, 15] of 92.9%.
`CN(c1ccccc1Cl)S(=O)(=O)c1ccccc1[N+](=O)[O-]` [Compound 38, N-(2-nitrophenylsulfonyl)-2chloro-N-methylaniline] gave an EC50 [1, 3] of 4.38 µM, an inhibition at 200 µM [1, 4] of 2.73% and an inhibition at 2 µM [1, 4] of 10.4%. It also gave an inhibition at 0.2 µM [1, 4] of 2.73%, an inhibition at 0.634 µM [1, 5] of -0.31% and an inhibition at 0.0635 µM ([1]; Human immunodeficiency virus 1, CCRF-CEM, dose 6.35 × 10^-8 Molar, read-out: Percent of Protection) of -0.27%. The inhibition at 20 µM [1, 6] was 61.9%, the inhibition at 63.2 µM [1, 16] was -0.27% and the inhibition at 6.33 µM [1, 7] was 69%. The activity at 200 µM [1, 9] was 28.4%, the activity at 20 µM [1, 10] was 63.8% and the activity at 2 µM [1, 9] was 14.9%. The activity at 0.2 µM [1, 9] was 7.25%, the activity at 63.2 µM [1, 17] was 26.1% and the activity at 6.33 µM [1, 11] was 70.6%. For the same compound, the activity at 0.634 µM [1, 12] was 4.71%, the activity at 0.0635 µM [1, 13] was 4.74% and the “TI50 (IC/EC), Therapeutic Index” value [1] was 7.79 × 10^0. It also gave an IC50 ([2]; uninfected CEM cells, 6 days, XTT, read-out: IC50 (50% inhibitory concentration for cell growth)) of 34.1 µM, an activity at 200 µM [2, 15] of 3.62% and an activity at 20 µM [2, 15] of 75.7%. It also gave an activity at 2 µM [2, 15] of 98.2%, an activity at 0.2 µM [2, 15] of 99.3% and an activity at 63.2 µM [2, 15] of 20.3%. It also gave an activity at 6.33 µM [2, 15] of 94.2%, an activity at 0.634 µM [2, 15] of 98.6% and an activity at 0.0635 µM [2, 15] of 101%.
`O=S(=O)(c1ccccc1)c1cccc2c1NCCC2` [Compound 45, 8-(phenylsulfonyl)-1,2,3,4-tetrahydroquinoline] showed an EC50 [1, 3] of 14 µM, an inhibition at 200 µM [1, 4] of 42.2% and an inhibition at 20 µM ([1]; Human immunodeficiency virus 1, CCRF-CEM, dose 2.00 × 10^-5 Molar, read-out: Percent of Protection) of 67%. The inhibition at 2 µM [1, 4] was 2.49%, the inhibition at 0.2 µM [1, 4] was 0.38% and the inhibition at 63.2 µM ([1]; Human immunodeficiency virus 1, CCRF-CEM, dose 6.32 × 10^-5 Molar, read-out: Percent of Protection) was 59.8%. The inhibition at 6.33 µM ([1]; Human immunodeficiency virus 1, CCRF-CEM, dose 6.33 × 10^-6 Molar, read-out: Percent of Protection) was 13.3%, the inhibition at 0.634 µM ([1]; Human immunodeficiency virus 1, CCRF-CEM, read-out: Percent of Protection, dose 6.34 × 10^-7 Molar) was 0.22% and the inhibition at 0.0635 µM [1, 8] was -1.54%. It also gave an activity at 200 µM [1, 9] of 43.3%, an activity at 20 µM [1, 10] of 67.7% and an activity at 2 µM [1, 9] of 4.44%. The activity at 0.2 µM [1, 9] was 2.37%, the activity at 63.2 µM [1, 17] was 60.6% and the activity at 6.33 µM [1, 11] was 15.1%. For the same compound, the activity at 0.634 µM [1, 12] was 2.22%, the activity at 0.0635 µM [1, 13] was 0.49% and the “TI50 (IC/EC), Therapeutic Index” value [1] was 1.43 × 10^+1. For the same compound, the IC50 [2, 14] was greater than 200 µM, the activity at 200 µM [2, 15] was 62.1% and the activity at 20 µM [2, 15] was 101%. For the same compound, the activity at 2 µM [2, 15] was 93.3%, the activity at 0.2 µM [2, 15] was 84.2% and the activity at 63.2 µM [2, 15] was 74.2%. It also gave an activity at 6.33 µM [2, 15] of 94.3%, an activity at 0.634 µM [2, 15] of 89.7% and an activity at 0.0635 µM [2, 15] of 87.2%.
